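All cell lines were grown in 96-well plates and treated with compound for 48 hours. GI50 marks 50% less growth.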 Active and inactive are the calls of the source. Rule as the data show it: active = GI50 up to about 1.1 µM and inactive = higher.
How the values were obtained:
Experiment in all cases: DTP human tumour cell line panel, 48 h
KM12 = test system: KM12
ACHN = test system: ACHN
HOP-62 = test system: HOP-62
OVCAR-8 = test system: OVCAR-8
SF-268 = test system: SF-268
UACC-62 = test system: UACC-62
SR = test system: SR
SNB-19 = test system: SNB-19
NCI-H460 = test system: NCI-H460
TK-10 = test system: TK-10
UO-31 = test system: UO-31
IGROV-1 = test system: IGROV-1
HCT-116 = test system: HCT-116
UACC-257 = test system: UACC-257
SF-295 = test system: SF-295
OVCAR-5 = test system: OVCAR-5
SK-OV-3 = test system: SK-OV-3
M14 = test system: M14
EKVX = test system: EKVX
Malme-3M = test system: Malme-3M

## FC(F)(F)c1ccc2c(c1)nc(Cc1ccc(Cl)cc1)n2CC1CCCN2CCCCC12 (stereo not given)
KM12
  GI50: 5.02 µM (inactive)
ACHN
  GI50: 11.5 µM (inactive)
HOP-62
  GI50: 14.1 µM (inactive)
OVCAR-8
  GI50: 11.3 µM (inactive)
SF-268
  GI50: 5.07 µM (inactive)
UACC-62
  GI50: 2.89 µM (inactive)
SR
  GI50: 2.29 µM (inactive)
SNB-19
  GI50: 14 µM (inactive)
NCI-H460
  GI50: 7.66 µM (inactive)
TK-10
  GI50: 12.2 µM (inactive)
UO-31
  GI50: 0.0194 µM (active)
IGROV-1
  GI50: 10.4 µM (inactive)
HCT-116
  GI50: 6.35 µM (inactive)
UACC-257
  GI50: 2.92 µM (inactive)
SF-295
  GI50: 10.5 µM (inactive)
OVCAR-5
  GI50: 12.5 µM (inactive)
SK-OV-3
  GI50: 11.9 µM (inactive)
M14
  GI50: 2.07 µM (inactive)
EKVX
  GI50: 11.1 µM (inactive)
Malme-3M
  GI50: 1.73 µM (inactive)

## COc1ccc2[nH]c3c(C)c4c(c(C)c3c2c1)CN(C)C=C4
KM12
  GI50: 1.35 µM (inactive)
ACHN
  GI50: 13.2 µM (inactive)
HOP-62
  GI50: 0.679 µM (active)
OVCAR-8
  GI50: 0.309 µM (active)
SF-268
  GI50: 0.175 µM (active)
UACC-62
  GI50: 3.3 µM (inactive)
SR
  GI50: 0.526 µM (active)
SNB-19
  GI50: 0.333 µM (active)
NCI-H460
  GI50: 1.32 µM (inactive)
TK-10
  GI50: 15.1 µM (inactive)
UO-31
  GI50: 24.5 µM (inactive)
IGROV-1
  GI50: 1.82 µM (inactive)
HCT-116
  GI50: 2.61 µM (inactive)
UACC-257
  GI50: 2.68 µM (inactive)
SF-295
  GI50: 0.293 µM (active)
OVCAR-5
  GI50: 7.57 µM (inactive)
SK-OV-3
  GI50: 7.23 µM (inactive)
M14
  GI50: 8.77 µM (inactive)
EKVX
  GI50: 2.49 µM (inactive)
Malme-3M
  GI50: 1.21 µM (inactive)

## COc1cc(OC)c2c(O)cc(CC(C)O)cc2c1 (stereo not given)
KM12
  GI50: > 100 µM (inactive)
ACHN
  GI50: > 100 µM (inactive)
HOP-62
  GI50: > 100 µM (inactive)
OVCAR-8
  GI50: > 100 µM (inactive)
SF-268
  GI50: > 100 µM (inactive)
UACC-62
  GI50: > 100 µM (inactive)
SR
  GI50: > 100 µM (inactive)
SNB-19
  GI50: > 100 µM (inactive)
NCI-H460
  GI50: > 100 µM (inactive)
TK-10
  GI50: > 100 µM (inactive)
UO-31
  GI50: > 100 µM (inactive)
IGROV-1
  GI50: > 100 µM (inactive)
HCT-116
  GI50: > 100 µM (inactive)
UACC-257
  GI50: > 100 µM (inactive)
SF-295
  GI50: > 100 µM (inactive)
OVCAR-5
  GI50: > 100 µM (inactive)
SK-OV-3
  GI50: > 100 µM (inactive)
M14
  GI50: > 100 µM (inactive)
EKVX
  GI50: > 100 µM (inactive)
Malme-3M
  GI50: > 100 µM (inactive)

## O=C1CC2[C@@H](N3CCCC3)CCC(N1Cc1ccccc1)C2(O)O (stereo not given in full)
KM12
  GI50: > 100 µM (inactive)
ACHN
  GI50: > 100 µM (inactive)
HOP-62
  GI50: > 100 µM (inactive)
OVCAR-8
  GI50: > 100 µM (inactive)
SF-268
  GI50: > 100 µM (inactive)
UACC-62
  GI50: > 100 µM (inactive)
SR
  GI50: > 100 µM (inactive)
SNB-19
  GI50: > 100 µM (inactive)
NCI-H460
  GI50: > 100 µM (inactive)
TK-10
  GI50: > 100 µM (inactive)
UO-31
  GI50: > 100 µM (inactive)
IGROV-1
  GI50: > 100 µM (inactive)
HCT-116
  GI50: > 100 µM (inactive)
UACC-257
  GI50: > 100 µM (inactive)
SF-295
  GI50: > 100 µM (inactive)
OVCAR-5
  GI50: > 100 µM (inactive)
SK-OV-3
  GI50: > 100 µM (inactive)
M14
  GI50: > 100 µM (inactive)
EKVX
  GI50: > 100 µM (inactive)
Malme-3M
  GI50: > 100 µM (inactive)

## COc1ccc2c(C)cc(N/N=C/c3ccc(OC)c4ccccc34)nc2c1
KM12
  GI50: 13.2 µM (inactive)
ACHN
  GI50: 4.48 µM (inactive)
HOP-62
  GI50: 18.2 µM (inactive)
OVCAR-8
  GI50: 18.5 µM (inactive)
SF-268
  GI50: 15.9 µM (inactive)
UACC-62
  GI50: 14.3 µM (inactive)
SR
  GI50: 4.17 µM (inactive)
SNB-19
  GI50: 18.8 µM (inactive)
NCI-H460
  GI50: 16.6 µM (inactive)
TK-10
  GI50: 17.3 µM (inactive)
UO-31
  GI50: 12.6 µM (inactive)
IGROV-1
  GI50: 14.9 µM (inactive)
HCT-116
  GI50: 5.35 µM (inactive)
UACC-257
  GI50: 19.3 µM (inactive)
SF-295
  GI50: 16.8 µM (inactive)
OVCAR-5
  GI50: 14 µM (inactive)
SK-OV-3
  GI50: 17.3 µM (inactive)
M14
  GI50: 17.1 µM (inactive)
EKVX
  GI50: 17.7 µM (inactive)
Malme-3M
  GI50: 17.5 µM (inactive)
